Read-outs that look alike come from different tables or passages of the source.
Key:
[1] = system: Capan-1 cells (K-Ras G12V); experiment: CellTiter-Glo cell viability, Capan-1; assay type: cell-based, human; conditions: K-Ras G12V, 5-day treatment, read-out: Capan-1 Cell Viability IC50
Outline: (§1)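 Cells seeded, compound dispensed straight into wells, 5-day exposure. Plates brought to room temperature ~30 min, CellTiter-Glo luminescence measured. Normalized to DMSO (%), 4-parameter logistic fit.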

[2] = biological target: K-Ras G12C(GMP-PNP) binding to BRAF RBD (Homo sapiens (Human), UniProt P01116+P62937, G12C); experiment: Disruption of BRAF RBD interaction with K-Ras (FRET / MOA assay), K-Ras G12C; assay type: biochemical
Outline: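 First, test compounds in a 10-point 3-fold series (30 μM final top) were incubated for 3 hours at 25° C with nucleotide-loaded Ras, cyclophilin A and a BRAF RBD construct. Next, Eu anti-His and allophycocyanin anti-GST detection reagents were added for 1.5 hours. Finally, IC50s were derived from loss of TR-FRET signal against DMSO.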

[3] = system: NCI-H358 cells (K-Ras G12C); experiment: CellTiter-Glo cell viability, NCI-H358; assay type: cell-based, human; conditions: K-Ras G12C, 5-day treatment, read-out: H358 Cell Viability IC50
Outline: as §1

KRAS G12C = KRAS G12C (Homo sapiens (Human), UniProt P01116+P62937, G12C); experiment: Ras-Raf disruption/FRET/MOA assay (BRAF RBD, Cyclophilin A); assay type: biochemical; conditions: read-out: KRAS G12C FRET IC50
Outline: (§2)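 TR-FRET read after 1.5 h with 10 nM anti-His Eu-W1024 and 50 nM anti-GST APC, following 3 h at 25 °C of GMPPNP-loaded His6-Ras (12.5 nM), GST-BRAF RBD (50 nM) and Cyclophilin A (25 μM) with compound from 30 μM final, 10 points, 3-fold. IC50 reported; pH 7.3 HEPES, 100 mM NaCl.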

KRAS G12D = KRAS G12D (Homo sapiens (Human), UniProt P01116+P62937, G12D); experiment: as above; assay type: biochemical; conditions: read-out: KRAS G12D FRET IC50
Outline: as §2

NRAS G12C = NRAS G12C (Homo sapiens (Human), UniProt P01111+P62937, G12C); experiment: as above; assay type: biochemical; conditions: read-out: NRAS G12C FRET data IC50
Outline: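 First, 25 μM Cyclophilin A, 12.5 nM His6-Ras-GMPPNP and 50 nM GST-BRAF RBD are mixed with diluted compound at pH 7.3. Next, 3 h at 25° C. Then 10 nM anti-His Eu-W1024 plus 50 nM anti-GST allophycocyanin for 1.5 h before TR-FRET reading.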

KRAS G12S = KRAS G12S (Homo sapiens (Human), UniProt P01116+P62937, G12S); experiment: as above; assay type: biochemical; conditions: read-out: KRAS G12S FRET IC50
Outline: as §2

KRAS WT = KRAS WT (Homo sapiens (Human), UniProt P01116+P62937); experiment: as above; assay type: biochemical; conditions: read-out: KRAS WT FRET data IC50
Outline: as §2

KRAS G12V = KRAS G12V (Homo sapiens (Human), UniProt P01116+P62937, G12V); experiment: as above; assay type: biochemical; conditions: read-out: KRAS G12V FRET IC50
Outline: as §2

KRAS G13C = KRAS G13C (Homo sapiens (Human), UniProt P01116+P62937, G13C); experiment: as above; assay type: biochemical; conditions: read-out: KRAS G13C FRET IC50
Outline: as §2

KRAS G13D = KRAS G13D (Homo sapiens (Human), UniProt P01116+P62937, G13D); experiment: as above; assay type: biochemical; conditions: read-out: KRAS G13D FRET data IC50
Outline: as §2

Chain of KRAS G13C (P01116 other isoform, or with tags, fused parts or gaps G13C): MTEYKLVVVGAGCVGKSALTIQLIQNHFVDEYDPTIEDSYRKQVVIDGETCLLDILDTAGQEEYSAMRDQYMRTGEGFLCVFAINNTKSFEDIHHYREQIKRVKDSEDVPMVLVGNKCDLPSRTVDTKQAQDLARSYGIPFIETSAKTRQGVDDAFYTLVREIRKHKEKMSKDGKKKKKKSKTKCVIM
Chain of KRAS G13C (P62937 whole entry): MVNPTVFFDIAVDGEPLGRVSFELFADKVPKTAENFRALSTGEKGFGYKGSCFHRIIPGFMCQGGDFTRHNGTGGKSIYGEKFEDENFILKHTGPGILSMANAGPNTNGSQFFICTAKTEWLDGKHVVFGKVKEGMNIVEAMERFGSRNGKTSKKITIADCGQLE
Chain of KRAS G12S (P01116 other isoform, or with tags, fused parts or gaps G12S): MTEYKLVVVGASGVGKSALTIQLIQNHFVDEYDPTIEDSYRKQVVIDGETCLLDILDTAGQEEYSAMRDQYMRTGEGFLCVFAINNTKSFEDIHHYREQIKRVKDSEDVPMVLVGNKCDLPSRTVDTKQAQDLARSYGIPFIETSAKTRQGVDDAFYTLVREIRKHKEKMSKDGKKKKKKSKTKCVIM
Chain of KRAS G12S (P62937 whole entry): as the sequence (P62937 whole entry) above
Chain of NRAS G12C (P01111 whole entry G12C): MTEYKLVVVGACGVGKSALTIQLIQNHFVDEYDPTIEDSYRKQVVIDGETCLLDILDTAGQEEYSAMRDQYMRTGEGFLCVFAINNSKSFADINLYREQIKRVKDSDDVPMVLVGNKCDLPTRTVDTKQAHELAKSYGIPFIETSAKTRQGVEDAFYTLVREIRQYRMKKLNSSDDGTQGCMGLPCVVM
Chain of NRAS G12C (P62937 whole entry): as the sequence (P62937 whole entry) above
Chain of KRAS G13D (P01116 other isoform, or with tags, fused parts or gaps G13D): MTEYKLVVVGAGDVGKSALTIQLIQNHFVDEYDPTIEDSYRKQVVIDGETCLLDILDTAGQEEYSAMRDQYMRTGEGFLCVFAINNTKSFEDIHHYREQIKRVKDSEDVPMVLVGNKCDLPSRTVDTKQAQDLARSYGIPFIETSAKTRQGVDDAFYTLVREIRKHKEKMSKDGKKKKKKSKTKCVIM
Chain of KRAS G13D (P62937 whole entry): as the sequence (P62937 whole entry) above
Chain of KRAS G12C (P01116-2 other isoform, or with tags, fused parts or gaps G12C): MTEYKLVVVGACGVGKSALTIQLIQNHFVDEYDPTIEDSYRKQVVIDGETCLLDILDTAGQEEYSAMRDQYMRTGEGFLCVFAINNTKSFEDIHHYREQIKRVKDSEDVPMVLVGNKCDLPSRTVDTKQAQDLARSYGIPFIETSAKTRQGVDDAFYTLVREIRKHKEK
Chain of KRAS G12C (P62937 whole entry): as the sequence (P62937 whole entry) above
Chain of KRAS G12V (P01116 other isoform, or with tags, fused parts or gaps G12V): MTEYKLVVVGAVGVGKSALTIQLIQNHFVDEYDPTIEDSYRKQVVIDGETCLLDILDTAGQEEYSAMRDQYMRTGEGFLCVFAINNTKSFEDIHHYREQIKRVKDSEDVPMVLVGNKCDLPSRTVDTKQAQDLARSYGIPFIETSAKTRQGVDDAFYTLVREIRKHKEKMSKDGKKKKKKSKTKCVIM
Chain of KRAS G12V (P62937 whole entry): as the sequence (P62937 whole entry) above
Chain of KRAS WT (P01116 other isoform, or with tags, fused parts or gaps): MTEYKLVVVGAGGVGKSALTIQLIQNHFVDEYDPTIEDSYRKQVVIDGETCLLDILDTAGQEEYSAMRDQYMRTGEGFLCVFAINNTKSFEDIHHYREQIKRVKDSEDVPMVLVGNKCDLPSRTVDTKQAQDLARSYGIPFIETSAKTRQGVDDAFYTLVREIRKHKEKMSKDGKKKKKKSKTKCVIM
Chain of KRAS WT (P62937 whole entry): as the sequence (P62937 whole entry) above
Chain of KRAS G12D (P01116 other isoform, or with tags, fused parts or gaps G12D): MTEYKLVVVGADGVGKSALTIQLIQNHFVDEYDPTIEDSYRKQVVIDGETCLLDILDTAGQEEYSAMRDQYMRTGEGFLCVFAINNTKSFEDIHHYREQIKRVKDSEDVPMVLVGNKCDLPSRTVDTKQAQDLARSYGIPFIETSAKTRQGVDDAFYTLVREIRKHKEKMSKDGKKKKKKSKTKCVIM
Chain of KRAS G12D (P62937 whole entry): as the sequence (P62937 whole entry) above
Chain of K-Ras G12C(GMP-PNP) binding to BRAF RBD (P01116 other isoform, or with tags, fused parts or gaps G12C): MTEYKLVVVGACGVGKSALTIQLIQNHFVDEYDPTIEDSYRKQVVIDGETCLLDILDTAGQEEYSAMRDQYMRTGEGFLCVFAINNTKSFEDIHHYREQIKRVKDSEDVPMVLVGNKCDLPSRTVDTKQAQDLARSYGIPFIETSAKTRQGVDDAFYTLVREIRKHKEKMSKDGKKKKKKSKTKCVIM
Chain of K-Ras G12C(GMP-PNP) binding to BRAF RBD (P62937 whole entry): as the sequence (P62937 whole entry) above

Row | SMILES | IC50 ([2]; KRAS G12C FRET IC50) [nM] | IC50 ([3]; Homo sapiens, NCI-H358, 120 h) [nM] | IC50 (KRAS G12C) [nM] | IC50 (KRAS G12D) [nM] | IC50 (NRAS G12C) [nM] | IC50 (KRAS G12S) [nM] | IC50 (KRAS WT) [nM] | IC50 (KRAS G12V) [nM] | IC50 (KRAS G13C) [nM] | IC50 ([2]; read-out: KRAS G12C FRET IC50) [nM] | IC50 (KRAS G13D) [nM] | IC50 [3] [nM] | IC50 ([1]; Homo sapiens, CAPAN-1, 120 h) [nM] | IC50 [1] [nM]
1 | CCn1c(-c2cccnc2[C@H](C)OC)c2c3cc(ccc31)-c1csc(n1)C[C@H](NC(=O)[C@H](C(C)C)N(C)C(=O)C1COC1)C(=O)N1CCC[C@H](N1)C(=O)OCC(C)(C)C2 [Compound A245] | < 10 | 100 to 1000 | 1000 to 10000 | > 10000 | 1000 to 10000 | 1000 to 10000 | 1000 to 10000 | 1000 to 10000 | 1000 to 10000 |  |  |  | 100 to 1000 | 
2 | CCn1c(-c2cccnc2[C@H](C)OC)c2c3cc(ccc31)-c1csc(n1)C[C@H](NC(=O)[C@H](C(C)C)N(C)C(=O)N1C[C@@H](C)N(C)C[C@@H]1C)C(=O)N1CCC[C@H](N1)C(=O)OCC(C)(C)C2 [Compound A292] |  | 100 to 1000 | 100 to 1000 | 1000 to 10000 | 100 to 1000 | 1000 to 10000 | 100 to 1000 | 1000 to 10000 | 1000 to 10000 | < 10 | 1000 to 10000 |  | 100 to 1000 | 
3 | CCn1c(-c2cccnc2[C@H](C)OC)c2c3cc(ccc31)-c1csc(n1)C[C@H](NC(=O)[C@H](C(C)C)N(C)C(=O)N1CC(N3CCC3)C1)C(=O)N1CCC[C@H](N1)C(=O)OCC(C)(C)C2 [Compound A295] |  | 10 to 100 | 100 to 1000 | 1000 to 10000 | 100 to 1000 | 100 to 1000 | 100 to 1000 | 100 to 1000 | 100 to 1000 | 10 to 100 | 100 to 1000 |  | 10 to 100 | 
4 | CCn1c(-c2cccnc2[C@H](C)OC)c2c3cc(ccc31)-c1csc(n1)C[C@H](NC(=O)[C@H](C(C)C)N1CCCN(C)C1=O)C(=O)N1CCC[C@H](N1)C(=O)OCC(C)(C)C2 [Compound A317] |  | 100 to 1000 | 1000 to 10000 | > 10000 | 1000 to 10000 | 1000 to 10000 | 1000 to 10000 | 1000 to 10000 | 1000 to 10000 | < 10 | 1000 to 10000 |  | 1000 to 10000 | 
5 | CCN(CC)C(=O)N(C)[C@H](C(=O)N[C@H]1Cc2nc(cs2)-c2ccc3c(c2)c(c(-c2cccnc2[C@H](C)OC)n3CC)CC(C)(C)COC(=O)[C@@H]2CCCN(N2)C1=O)C(C)C [Compound A351] |  | 10 to 100 | 10 to 100 | 100 to 1000 | 10 to 100 | 10 to 100 | 10 to 100 | 100 to 1000 | 10 to 100 | < 10 | 100 to 1000 |  | 100 to 1000 | 
6 | CCn1c(-c2cccnc2[C@H](C)OC)c2c3cc(ccc31)-c1csc(n1)C[C@H](NC(=O)C1CC1)C(=O)N1CCC[C@H](N1)C(=O)OCC(C)(C)C2 [Compound A367] |  | 100 to 1000 | 100 to 1000 | 1000 to 10000 | 100 to 1000 | 100 to 1000 | 100 to 1000 | 100 to 1000 | 100 to 1000 | 10 to 100 | 1000 to 10000 |  | 100 to 1000 | 
7 | CCn1c(-c2cccnc2[C@H](C)OC)c2c3cc(ccc31)-c1cc(O)cc(c1)C[C@H](NC(=O)[C@H](C(C)C)N(C)C(=O)[C@H]1CCN(C(=O)[C@@H](C)N(C)C)C1)C(=O)N1CCC[C@H](N1)C(=O)OCC(C)(C)C2 [Compound A386] |  | 100 to 1000 | 10 to 100 | 10 to 100 | 10 to 100 | 10 to 100 | 10 to 100 | 100 to 1000 | 10 to 100 | 10 to 100 | 10 to 100 |  | 100 to 1000 | 
8 | CCn1c(-c2cccnc2[C@H](C)OC)c2c3cc(ccc31)-c1cc(O)cc(c1)C[C@H](NC(=O)[C@H](C(C)C)N(C)C(=O)[C@@H]1CCCC[C@@H]1N)C(=O)N1CCC[C@H](N1)C(=O)OCC(C)(C)C2 [Compound A395] |  | 100 to 1000 | 10 to 100 | 10 to 100 | 10 to 100 | 10 to 100 | 10 to 100 | 100 to 1000 | 10 to 100 | 100 to 1000 | 10 to 100 |  | 100 to 1000 | 

The next lines start with results.

Row | IC50 ([2]; KRAS G12C FRET IC50) [nM] | IC50 ([3]; Homo sapiens, NCI-H358, 120 h) [nM] | IC50 (KRAS G12C) [nM] | IC50 (KRAS G12D) [nM] | IC50 (NRAS G12C) [nM] | IC50 (KRAS G12S) [nM] | IC50 (KRAS WT) [nM] | IC50 (KRAS G12V) [nM] | IC50 (KRAS G13C) [nM] | IC50 ([2]; read-out: KRAS G12C FRET IC50) [nM] | IC50 (KRAS G13D) [nM] | IC50 [3] [nM] | SMILES | IC50 ([1]; Homo sapiens, CAPAN-1, 120 h) [nM] | IC50 [1] [nM]
9 |  | 10 to 100 | 100 to 1000 | 1000 to 10000 | 100 to 1000 | 100 to 1000 | 100 to 1000 | 100 to 1000 | 100 to 1000 | < 10 | 100 to 1000 |  | CCn1c(-c2cccnc2[C@H](C)OC)c2c3cc(ccc31)-c1csc(n1)C[C@H](NC(=O)[C@H](C(C)C)N(C)C(=O)N1CCOC[C@@H]1C)C(=O)N1CCC[C@H](N1)C(=O)OCC(C)(C)C2 [Compound A403] | 10 to 100 | 
10 |  | 10 to 100 | 10 to 100 | 100 to 1000 | 10 to 100 | 10 to 100 | 10 to 100 | 100 to 1000 | 10 to 100 | 100 to 1000 | 100 to 1000 |  | CCn1c(-c2cccnc2[C@H](C)OC)c2c3cc(ccc31)-c1cc(O)cc(c1)C[C@H](NC(=O)[C@H](C(C)C)N(C)C(=O)C13CC(CO1)C3)C(=O)N1CCC[C@H](N1)C(=O)OCC(C)(C)C2 [Compound A406] | 100 to 1000 | 
11 |  | 100 to 1000 | 10 to 100 | 100 to 1000 | 10 to 100 | 10 to 100 | 10 to 100 | 100 to 1000 | 10 to 100 | 100 to 1000 | 10 to 100 |  | CCn1c(-c2cccnc2[C@H](C)OC)c2c3cc(ccc31)-c1cc(O)cc(c1)C[C@H](NC(=O)[C@H](C(C)C)N(C)C(=O)C1CCC3(CCOC3)O1)C(=O)N1CCC[C@H](N1)C(=O)OCC(C)(C)C2 (stereo partly drawn) [Compound A409] | 100 to 1000 | 
12 |  |  | 10 to 100 | 100 to 1000 | 10 to 100 | 10 to 100 |  | 100 to 1000 | 100 to 1000 | < 10 |  | 100 to 1000 | CCn1c(-c2cccnc2[C@H](C)OC)c2c3cc(ccc31)-c1cc(O)cc(c1)C[C@H](NC(=O)[C@H](C(C)C)N(C)C(=O)C13CCC(CO1)C3)C(=O)N1CCC[C@H](N1)C(=O)OCC(C)(C)C2 [Compound A411] |  | 100 to 1000
